Data from US5776912A, “Lipophilic oligosaccharide antibiotic compositions” (Schering Corporation, priority 1996, dated 1998).
Where a name gives a salt, the structure may show the parent alone. Read-outs that look alike come from different tables or passages of the source.

Legend:
[1] = system: methicillin-resistant staphylococci; format: cell-based
[2] = system: methicillin-susceptible staphylococci; test: Agar dilution MIC, methicillin-susceptible staphylococci; format: cell-based
Enterococcus faecalis = test: Agar dilution MIC, Enterococcus faecalis; format: cell-based; settings: printed for E. faecalis and E. faecium together
Enterococcus faecium = test: Agar dilution MIC, Enterococcus faecium; format: cell-based; settings: printed for E. faecalis and E. faecium together
[3] = system: enterococci resistant to vancomycin; test: microbe, parasite or virus in culture; format: cell-based
[4] = system: various strains of streptococci; test: Agar dilution MIC, streptococci; format: cell-based
Borrelia burgdorferi = test: MIC, Borrelia burgdorferi; format: cell-based
Legionella pneumophila = format: cell-based
L. longbeacheae = test: MIC, L. longbeacheae; format: cell-based
gram-negative bacteria = test: Agar dilution MIC, gram-negative bacteria; format: cell-based
Trichomonas vaginalis = test: MIC, Trichomonas vaginalis; format: cell-based
Mycoplasma sp. = test: MIC, Mycoplasma sp.; format: cell-based
bacteria = format: cell-based
[5] = system: various clinical and laboratory strains of staphylococci; test: Bactericidal activity, staphylococci; format: cell-based
S. aureus 85111205 = test: Mouse protection model, PD50 (Table 4), S. aureus 85111205; format: in vivo, Staphylococcus aureus (infection in CF1 mice); settings: Staphylococcus aureus, 85111205, iv, read-out: PD50
From the text: (§1) PD 50 Valves Showing Efficacy of Composition Containing the
(§2) Compound of Formula III Against Bacterial Infections^1 in CF1
(§3) ^1 Injections were by IP route
(§4) ^2 CFI mice are Charles River CFI, ca 20 g while male mice
(§5) ^4 PD50 Dosing routes for drugs: IV for A, B and C; SC for D in
(§6) ^5. Multiple of one LD100 (lethal dose to kill 100% of animals) of
(§7) organism given to mice. (Measure of severity of the infection.)
(§8) See Table 4 for PD50 values for the compositions of the compound of formula III including a preferred composition of the present invention (Drug B) compared to those for vancomycin (Drug C) and amikacin (drug D).

S. aureus 78100502 = test: Mouse protection model, PD50 (Table 4), S. aureus 78100502; format: in vivo, Staphylococcus aureus (infection in CF1 mice); settings: Staphylococcus aureus, drug IV, 20 × LD, 2.2 × 10^8 CFU/mouse IP
From the text: as §1, §2, §3, §4, §5, §6, §7, §8

E. faecalis 88032810 = test: Mouse protection model, PD50 (Table 4), E. faecalis 88032810; format: in vivo, Enterococcus faecalis (infection in CF1 mice); settings: read-out: PD50
From the text: as §1, §2, §3, §4, §5, §6, §7, §8

[6] = system: E. faecalis 91031103 (Vancomycin resistant); test: Mouse protection model, PD50 (Table 4), vancomycin resistant E. faecalis 91031103; format: in vivo, Enterococcus faecalis (infection in CF1 mice); settings: Enterococcus faecalis, read-out: PD50
From the text: as §1, §2, §3, §4, §5, §6, §7, §8

[7] = pH of aqueous solutions formed with bases; format: physicochemical
[8] = Formation of aqueous solutions; format: physicochemical; settings: in water
[9] = agar dilution, Mueller-Hinton agar

56-deacetyl-57-demethyl-45-O-de(2-methyl-1 -oxopropyl)-12-O-(2,3,6-trideoxy-3-C-methyl-4-O-methyl-3-nitro-α-L-arabino-hexopyransoyl)-flambamycin 56-(2,4-dihydroxy-6-methylbenzoate) [compound of Formula III]
GMM (geometric mean MIC) [1, 9]: 0.1 µg/mL | potency relative to vancomycin ([1]; more potent than vancomycin): 2 fold | GMM (geometric mean MIC) [2, 9]: 0.5 µg/mL | potency relative to vancomycin ([2]; more potent than vancomycin): 2 fold | GMM (geometric mean MIC) (Enterococcus faecalis): 0.49 µg/mL | GMM (geometric mean MIC) (Enterococcus faecium): 0.49 µg/mL | activity (in words) ([3]; enterococci resistant to vancomycin): good activity | MICs [4]: < 0.5 µg/mL | MICs (Borrelia burgdorferi): < 0.49 µg/mL | MICs (Legionella pneumophila): 2.5 µg/mL | MICs (L. longbeacheae): 2.5 µg/mL | GMM (geometric mean MIC) (gram-negative bacteria): > 760 µg/mL | MICs (Trichomonas vaginalis): > 192 µg/mL | MICs (Mycoplasma sp.): 200 µg/mL | cross resistance with other antibiotics (bacteria): No cross resistance with other antibiotics was observed | bactericidal activity [5]: moderate bactericidal activity

CN[C@H](CC(C)C)C(=O)N[C@H]1C(=O)N[C@@H](CC(N)=O)C(=O)N[C@H]2C(=O)N[C@H]3C(=O)N[C@H](C(=O)N[C@H](C(=O)O)c4cc(O)cc(O)c4-c4cc3ccc4O)[C@H](O)c3ccc(c(Cl)c3)Oc3cc2cc(c3O[C@@H]2O[C@H](CO)[C@@H](O)[C@H](O)[C@H]2O[C@H]2C[C@](C)(N)[C@H](O)[C@H](C)O2)Oc2ccc(cc2Cl)[C@H]1O [Drug C, Vancomycin HCl]
ED50 (S. aureus 85111205): 26 mg/kg | ED50 (S. aureus 78100502): 6 mg/kg | ED50 (E. faecalis 88032810; Enterococcus faecalis, 88032810, iv): 10 mg/kg | ED50 ([6]; iv): 100 mg/kg | MIC ([3]; read-out: MICs): > 128 µg/mL

NCC[C@H](O)C(=O)N[C@@H]1C[C@H](N)[C@@H](O[C@H]2O[C@H](CN)[C@@H](O)[C@H](O)[C@H]2O)[C@H](O)[C@H]1O[C@H]1O[C@H](CO)[C@@H](O)[C@H](N)[C@H]1O [Drug D, Amikacin]
ED50 (E. faecalis 88032810; Enterococcus faecalis, 88032810, drug SC, 10 × LD, 9.7 × 10^8 CFU/mouse IP): 115 mg/kg | ED50 ([6]; drug SC, 1.7 × LD, 1.5 × 10^9 CFU/mouse IP): 49 mg/kg

NCCCC[C@H](N)C(=O)O [Lysine]
pH of aqueous solution [7]: less than 9.3

[Ba+2].[OH-].[OH-] [barium hydroxide]
formation of aqueous solution [8]: did not form aqueous solutions

[Ca+2].[OH-].[OH-] [calcium hydroxide]
formation of aqueous solution [8]: did not form aqueous solutions
